ChEMBL document CHEMBL1765080, “Synthesis, biological evaluation and molecular modeling of novel triazole-containing berberine derivatives as acetylcholinesterase and β-amyloid aggregation inhibitors” (Bioorg Med Chem, 2011)
pIC50: −log10 of the molar value.

Assays:
Acetylcholinesterase = Acetylcholinesterase (Electrophorus electricus, UniProt O42275); experiment: Inhibition of electric eel Acetylcholinesterase
Butyrylcholinesterase = Butyrylcholinesterase (Equus caballus, UniProt Q9N1N9); experiment: Inhibition of equine serum Butyrylcholinesterase
Sequence of Butyrylcholinesterase (Q9N1N9 whole entry): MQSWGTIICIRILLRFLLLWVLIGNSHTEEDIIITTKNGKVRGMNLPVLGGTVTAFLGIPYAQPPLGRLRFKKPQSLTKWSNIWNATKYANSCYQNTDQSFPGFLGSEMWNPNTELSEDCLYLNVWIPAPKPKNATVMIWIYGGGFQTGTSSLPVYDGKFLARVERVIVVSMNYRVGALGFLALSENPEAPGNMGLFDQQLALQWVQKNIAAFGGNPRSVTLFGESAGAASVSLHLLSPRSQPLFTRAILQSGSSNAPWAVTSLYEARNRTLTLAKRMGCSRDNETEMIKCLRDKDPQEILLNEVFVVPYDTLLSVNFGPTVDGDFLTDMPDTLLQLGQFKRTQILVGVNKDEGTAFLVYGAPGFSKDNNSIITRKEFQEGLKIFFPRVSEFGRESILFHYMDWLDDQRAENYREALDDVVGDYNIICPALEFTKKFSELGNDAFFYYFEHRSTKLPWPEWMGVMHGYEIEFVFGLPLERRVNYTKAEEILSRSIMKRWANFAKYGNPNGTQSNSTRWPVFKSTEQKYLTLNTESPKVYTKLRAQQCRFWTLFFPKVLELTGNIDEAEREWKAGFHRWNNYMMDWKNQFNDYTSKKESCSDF

[1] = Ratio of IC50 for equine serum Butyrylcholinesterase to IC50 for electric eel Acetylcholinesterase
[2] = Inhibition of amyloid-beta (1 to 42) aggregation at 20 uM after 48 hrs by fluorescence analysis using thioflavin T

Sequence of Acetylcholinesterase (O42275 whole entry): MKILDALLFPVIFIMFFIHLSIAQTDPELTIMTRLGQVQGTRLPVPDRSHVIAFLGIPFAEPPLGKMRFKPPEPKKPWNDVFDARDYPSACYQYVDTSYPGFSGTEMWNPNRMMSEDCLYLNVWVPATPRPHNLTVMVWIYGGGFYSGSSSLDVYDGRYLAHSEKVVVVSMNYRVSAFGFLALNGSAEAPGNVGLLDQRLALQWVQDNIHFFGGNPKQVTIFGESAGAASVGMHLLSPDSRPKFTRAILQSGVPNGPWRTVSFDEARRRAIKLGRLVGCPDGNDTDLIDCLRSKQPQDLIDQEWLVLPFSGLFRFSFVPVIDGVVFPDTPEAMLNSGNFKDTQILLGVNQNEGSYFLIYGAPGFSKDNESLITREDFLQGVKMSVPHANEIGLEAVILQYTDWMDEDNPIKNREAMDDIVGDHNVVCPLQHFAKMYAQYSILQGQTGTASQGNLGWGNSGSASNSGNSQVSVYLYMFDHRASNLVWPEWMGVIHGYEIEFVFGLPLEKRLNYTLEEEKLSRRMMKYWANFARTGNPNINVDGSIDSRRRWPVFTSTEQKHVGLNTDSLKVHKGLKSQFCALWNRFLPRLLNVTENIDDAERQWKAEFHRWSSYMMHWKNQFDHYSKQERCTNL

Structure (SMILES) | pIC50 (Acetylcholinesterase) | pIC50 (Butyrylcholinesterase) | Ratio IC50 [1] | inhibition [2]
COc1ccc2cc3[n+](cc2c1OCCCCn1cc(-c2ccccc2)nn1)CCc1cc2c(cc1-3)OCO2 | 5.88 | 5.82 | 1.14 | 60.6%
CCCN(CCC)c1cn(CCCCOc2c(OC)ccc3cc4[n+](cc23)CCc2cc3c(cc2-4)OCO3)nn1 | 6.57 | 5.32 | 17.7 | 62.5%
CCCCN(CCCC)c1cn(CCCOc2c(OC)ccc3cc4[n+](cc23)CCc2cc3c(cc2-4)OCO3)nn1 | 6.61 | 5.69 | 8.48 | 
CCCCc1cn(CCCOc2c(OC)ccc3cc4[n+](cc23)CCc2cc3c(cc2-4)OCO3)nn1 | 6.78 | 5.39 | 24.6 | 
CCCN(CCC)c1cn(CCCOc2c(OC)ccc3cc4[n+](cc23)CCc2cc3c(cc2-4)OCO3)nn1 | 6.85 | 5.80 | 11.3 | 
CCCCc1cn(CCCCOc2c(OC)ccc3cc4[n+](cc23)CCc2cc3c(cc2-4)OCO3)nn1 | 6.70 | 5.69 | 10 | 77.9%
CCCCN(CCCC)c1cn(CCCCOc2c(OC)ccc3cc4[n+](cc23)CCc2cc3c(cc2-4)OCO3)nn1 | 6.33 | 5.26 | 11.6 | 71.7%
COc1ccc2cc3[n+](cc2c1OCCCn1cc(-c2ccccc2)nn1)CCc1cc2c(cc1-3)OCO2 | 6.51 | 5.66 | 7.13 | 
COc1ccc2cc3[n+](cc2c1OC)CCc1cc2c(cc1-3)OCO2 |  |  |  | 36.3%
